Values belong to the compound of their own block, whether it stands above or below them. Active and inactive are the calls of the source.
Key:
[1] = HPDE-C7 pancreatic duct cell viability loss – fluorescence, HTS (AID 430); type: functional, cell-based; conditions: Homo sapiens
[2] = viability loss of HPDE-C7K cells – cell-based, fluorescence, HTS, primary screen (AID 431); type: functional; conditions: Homo sapiens
[3] = biological target: Voltage-dependent T-type calcium channel subunit alpha-1H (Homo sapiens, UniProt O95180); type: functional;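 note: channel activity triggered by adding a high calcium stimulation buffer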
[4] = biological target: Mitogen-activated protein kinase 10 (Homo sapiens, UniProt P53779); experiment: Dose response biochemical screening assay for inhibitors of c-Jun N-Terminal Kinase 3 (JNK3). [Related pubchem assays: 746 ]
Mitogen-activated protein kinase 10, sequence (P53779 whole entry): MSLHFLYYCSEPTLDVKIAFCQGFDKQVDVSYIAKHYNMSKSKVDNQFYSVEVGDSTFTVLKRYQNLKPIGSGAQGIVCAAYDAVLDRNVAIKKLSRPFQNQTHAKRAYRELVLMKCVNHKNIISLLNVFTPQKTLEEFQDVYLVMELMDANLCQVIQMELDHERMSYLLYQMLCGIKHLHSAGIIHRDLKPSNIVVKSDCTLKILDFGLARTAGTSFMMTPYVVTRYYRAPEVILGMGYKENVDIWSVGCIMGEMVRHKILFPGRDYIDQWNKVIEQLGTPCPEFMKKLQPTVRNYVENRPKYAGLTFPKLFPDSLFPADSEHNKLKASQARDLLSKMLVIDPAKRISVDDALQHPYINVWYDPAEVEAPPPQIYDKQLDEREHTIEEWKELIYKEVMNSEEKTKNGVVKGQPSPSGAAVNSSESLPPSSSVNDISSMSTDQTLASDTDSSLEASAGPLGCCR

[5] = biological target: NAD-dependent protein deacylase sirtuin-5, mitochondrial (Homo sapiens, UniProt Q9NXA8); experiment: sirtuin-5 deacylation blockers, concentration series – biochemical, fluorescence imaging, cherry-pick, set 5, dose response (AID 720591);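 note: desuccinylation of succinyl peptide AMC substrate read as fluorescence after trypsin release; potency of inhibitors that lower fluorescence and may act on trypsin instead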
Estrogen receptor beta = Estrogen receptor beta (Homo sapiens, UniProt Q92731);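 note: recombinant ER-beta bound to coactivator SRC1 peptide in presence of estradiol agonist; inhibitors block coactivator peptide binding and lower the FRET signal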
Estrogen receptor beta, sequence (Q92731 whole entry): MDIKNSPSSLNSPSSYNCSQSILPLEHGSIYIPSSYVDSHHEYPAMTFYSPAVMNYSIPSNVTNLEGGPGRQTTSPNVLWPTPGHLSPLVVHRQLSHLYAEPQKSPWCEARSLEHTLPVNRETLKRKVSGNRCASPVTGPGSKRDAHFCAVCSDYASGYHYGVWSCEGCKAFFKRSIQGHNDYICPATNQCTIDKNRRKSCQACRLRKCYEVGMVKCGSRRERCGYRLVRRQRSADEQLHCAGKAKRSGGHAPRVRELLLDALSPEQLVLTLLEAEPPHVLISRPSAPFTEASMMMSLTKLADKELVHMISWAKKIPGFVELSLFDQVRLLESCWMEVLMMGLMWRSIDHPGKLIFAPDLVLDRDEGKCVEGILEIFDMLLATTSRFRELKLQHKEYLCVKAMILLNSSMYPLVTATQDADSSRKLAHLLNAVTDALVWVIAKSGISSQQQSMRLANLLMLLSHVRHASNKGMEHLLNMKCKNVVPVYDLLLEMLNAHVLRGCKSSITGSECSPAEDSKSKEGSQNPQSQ

[6] = biological target: T1, Aryl hydrocarbon receptor (Homo sapiens, UniProt P35869); experiment: Luminescence-based cell-based high throughput dose response assay for activators of the Aryl Hydrocarbon Receptor (AHR). [Related pubchem assays: 2796 (Primary screen (AHR activators in singlicate)), 2845 (Confirmation screen (AHR activators in triplicate)), 434939 (Counterscreen (PXR activators in triplicate)), 2804 (Summary (AHR activators))]; type: ADME
T1 sequence (P35869 whole entry): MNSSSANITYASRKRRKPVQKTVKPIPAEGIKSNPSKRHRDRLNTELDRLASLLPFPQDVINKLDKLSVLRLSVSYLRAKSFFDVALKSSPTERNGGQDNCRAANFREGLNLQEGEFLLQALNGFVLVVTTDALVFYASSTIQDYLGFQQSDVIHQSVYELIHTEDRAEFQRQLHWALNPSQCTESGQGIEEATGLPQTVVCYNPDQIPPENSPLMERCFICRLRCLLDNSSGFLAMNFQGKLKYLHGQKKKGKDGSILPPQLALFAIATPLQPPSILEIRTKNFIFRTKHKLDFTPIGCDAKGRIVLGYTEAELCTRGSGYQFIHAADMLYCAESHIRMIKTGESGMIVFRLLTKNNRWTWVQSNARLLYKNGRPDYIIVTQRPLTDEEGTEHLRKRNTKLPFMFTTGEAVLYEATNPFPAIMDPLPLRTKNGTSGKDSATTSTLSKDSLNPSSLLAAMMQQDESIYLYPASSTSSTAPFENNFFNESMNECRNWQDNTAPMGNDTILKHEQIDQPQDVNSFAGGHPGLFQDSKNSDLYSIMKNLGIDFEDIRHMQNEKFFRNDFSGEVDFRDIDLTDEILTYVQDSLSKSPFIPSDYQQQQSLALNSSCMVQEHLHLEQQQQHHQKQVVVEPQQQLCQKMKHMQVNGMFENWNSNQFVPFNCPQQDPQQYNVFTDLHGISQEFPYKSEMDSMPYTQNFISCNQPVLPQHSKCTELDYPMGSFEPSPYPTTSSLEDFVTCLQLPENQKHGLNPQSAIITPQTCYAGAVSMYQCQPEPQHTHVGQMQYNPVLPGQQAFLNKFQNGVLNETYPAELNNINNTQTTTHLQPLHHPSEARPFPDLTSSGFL

[7] = biological target: Peroxisome proliferator-activated receptor gamma/Nuclear receptor coactivator 2 (Homo sapiens, UniProt P37231); type: functional;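 note: agonist potency for raising coactivator recruitment to the receptor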
[8] = biological target: Peroxisome proliferator-activated receptor gamma/Nuclear receptor coactivator 1 (Homo sapiens, UniProt P37231); type: functional;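 note: agonist potency as compounds enhance coactivator SRC-1 recruitment to PPARgamma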
Peroxisome proliferator-activated receptor gamma/Nuclear receptor coactivator 1, sequence (P37231 whole entry): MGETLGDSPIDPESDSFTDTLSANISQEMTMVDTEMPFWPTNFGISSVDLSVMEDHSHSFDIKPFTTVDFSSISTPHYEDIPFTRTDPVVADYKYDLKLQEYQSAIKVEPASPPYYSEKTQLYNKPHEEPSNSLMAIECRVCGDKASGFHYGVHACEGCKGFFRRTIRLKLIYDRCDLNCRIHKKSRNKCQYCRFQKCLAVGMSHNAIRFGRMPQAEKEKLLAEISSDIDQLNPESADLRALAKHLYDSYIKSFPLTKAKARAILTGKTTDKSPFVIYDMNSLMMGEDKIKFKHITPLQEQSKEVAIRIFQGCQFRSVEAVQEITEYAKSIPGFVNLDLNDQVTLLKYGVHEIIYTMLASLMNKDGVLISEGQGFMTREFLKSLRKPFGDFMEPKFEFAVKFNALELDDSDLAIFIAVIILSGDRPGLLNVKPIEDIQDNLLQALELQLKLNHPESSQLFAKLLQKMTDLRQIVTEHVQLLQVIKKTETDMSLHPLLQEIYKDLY
Peroxisome proliferator-activated receptor gamma/Nuclear receptor coactivator 1, sequence (Q15788 whole entry, further chain): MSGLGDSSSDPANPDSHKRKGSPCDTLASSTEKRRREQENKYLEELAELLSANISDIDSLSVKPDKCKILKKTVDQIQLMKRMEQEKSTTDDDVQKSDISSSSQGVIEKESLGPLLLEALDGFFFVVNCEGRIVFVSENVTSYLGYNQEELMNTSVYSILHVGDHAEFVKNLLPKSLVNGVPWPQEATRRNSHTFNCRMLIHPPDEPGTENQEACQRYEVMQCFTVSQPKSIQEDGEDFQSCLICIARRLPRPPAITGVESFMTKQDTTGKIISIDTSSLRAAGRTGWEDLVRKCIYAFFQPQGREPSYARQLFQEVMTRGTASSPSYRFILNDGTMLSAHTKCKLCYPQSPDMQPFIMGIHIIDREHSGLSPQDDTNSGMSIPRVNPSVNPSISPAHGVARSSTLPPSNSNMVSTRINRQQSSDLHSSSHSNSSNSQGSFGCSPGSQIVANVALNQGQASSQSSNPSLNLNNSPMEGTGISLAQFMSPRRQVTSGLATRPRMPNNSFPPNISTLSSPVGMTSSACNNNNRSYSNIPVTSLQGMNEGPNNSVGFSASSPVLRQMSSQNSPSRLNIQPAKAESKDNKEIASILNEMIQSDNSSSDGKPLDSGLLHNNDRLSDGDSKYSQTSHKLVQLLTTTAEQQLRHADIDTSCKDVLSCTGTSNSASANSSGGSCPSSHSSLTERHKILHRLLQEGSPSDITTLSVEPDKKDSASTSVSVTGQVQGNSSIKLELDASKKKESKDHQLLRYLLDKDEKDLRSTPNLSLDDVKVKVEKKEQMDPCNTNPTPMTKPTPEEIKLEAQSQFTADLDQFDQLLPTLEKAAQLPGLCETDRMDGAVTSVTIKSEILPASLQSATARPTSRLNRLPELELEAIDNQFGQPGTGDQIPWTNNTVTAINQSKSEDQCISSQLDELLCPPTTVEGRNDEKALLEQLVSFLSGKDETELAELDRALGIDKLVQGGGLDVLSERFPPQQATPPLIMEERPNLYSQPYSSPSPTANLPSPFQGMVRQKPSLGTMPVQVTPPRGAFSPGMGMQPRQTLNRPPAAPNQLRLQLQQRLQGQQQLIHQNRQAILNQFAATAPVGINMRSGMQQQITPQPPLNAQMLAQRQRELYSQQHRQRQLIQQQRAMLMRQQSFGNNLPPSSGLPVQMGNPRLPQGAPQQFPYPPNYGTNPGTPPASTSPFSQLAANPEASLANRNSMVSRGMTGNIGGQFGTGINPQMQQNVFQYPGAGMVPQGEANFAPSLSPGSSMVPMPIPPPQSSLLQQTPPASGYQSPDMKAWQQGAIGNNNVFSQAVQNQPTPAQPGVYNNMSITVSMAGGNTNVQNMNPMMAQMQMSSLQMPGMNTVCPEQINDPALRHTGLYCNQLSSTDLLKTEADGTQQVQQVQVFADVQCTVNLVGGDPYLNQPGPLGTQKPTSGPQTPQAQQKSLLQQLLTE

[9] = biological target: Peroxisome proliferator-activated receptor gamma/Nuclear receptor coactivator 3 (Homo sapiens, UniProt P37231); type: functional;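 note: agonist potency for raising coactivator recruitment to the receptor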
Peroxisome proliferator-activated receptor gamma/Nuclear receptor coactivator 3, sequence (P37231 whole entry): as the sequence (P37231 whole entry) above
Peroxisome proliferator-activated receptor gamma/Nuclear receptor coactivator 3, sequence (Q9Y6Q9 whole entry, further chain): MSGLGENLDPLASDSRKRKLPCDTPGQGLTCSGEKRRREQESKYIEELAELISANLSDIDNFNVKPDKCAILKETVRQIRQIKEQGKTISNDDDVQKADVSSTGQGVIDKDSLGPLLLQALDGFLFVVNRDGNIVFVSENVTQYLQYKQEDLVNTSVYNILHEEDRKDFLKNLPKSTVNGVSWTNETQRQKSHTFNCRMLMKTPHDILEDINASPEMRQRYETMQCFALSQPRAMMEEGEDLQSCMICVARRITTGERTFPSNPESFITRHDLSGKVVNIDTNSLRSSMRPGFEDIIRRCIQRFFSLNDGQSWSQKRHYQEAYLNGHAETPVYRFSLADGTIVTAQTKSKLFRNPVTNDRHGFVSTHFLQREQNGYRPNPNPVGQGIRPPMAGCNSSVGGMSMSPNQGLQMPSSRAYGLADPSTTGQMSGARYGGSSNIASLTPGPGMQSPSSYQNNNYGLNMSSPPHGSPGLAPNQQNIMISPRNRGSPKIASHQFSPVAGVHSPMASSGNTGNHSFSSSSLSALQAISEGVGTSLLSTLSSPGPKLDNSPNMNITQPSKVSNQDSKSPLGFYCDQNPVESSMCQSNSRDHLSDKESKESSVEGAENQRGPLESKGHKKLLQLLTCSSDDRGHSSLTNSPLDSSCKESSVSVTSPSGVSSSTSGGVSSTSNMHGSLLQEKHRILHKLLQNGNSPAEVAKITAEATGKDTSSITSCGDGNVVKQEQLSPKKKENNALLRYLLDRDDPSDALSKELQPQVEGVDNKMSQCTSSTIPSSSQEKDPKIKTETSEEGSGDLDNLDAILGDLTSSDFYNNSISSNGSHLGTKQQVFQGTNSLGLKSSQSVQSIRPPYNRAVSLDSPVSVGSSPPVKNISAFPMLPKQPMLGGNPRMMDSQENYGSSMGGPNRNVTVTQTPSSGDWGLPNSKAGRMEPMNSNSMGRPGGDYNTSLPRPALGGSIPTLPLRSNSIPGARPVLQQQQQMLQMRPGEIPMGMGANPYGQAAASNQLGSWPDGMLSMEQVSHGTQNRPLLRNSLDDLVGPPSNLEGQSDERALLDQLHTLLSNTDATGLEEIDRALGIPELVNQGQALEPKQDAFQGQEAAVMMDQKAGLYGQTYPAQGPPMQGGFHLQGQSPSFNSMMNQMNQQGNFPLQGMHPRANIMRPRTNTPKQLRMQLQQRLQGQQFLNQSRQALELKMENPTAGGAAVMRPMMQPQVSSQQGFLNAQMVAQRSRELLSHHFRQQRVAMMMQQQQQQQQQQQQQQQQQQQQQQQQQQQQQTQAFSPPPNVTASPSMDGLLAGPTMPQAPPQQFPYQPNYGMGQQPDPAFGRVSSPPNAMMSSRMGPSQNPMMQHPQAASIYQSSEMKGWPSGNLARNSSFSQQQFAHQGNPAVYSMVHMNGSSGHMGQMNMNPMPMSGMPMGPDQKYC

[10] = biological target: Luciferin 4-monooxygenase (Photinus pyralis, UniProt P08659); experiment: Counter Screen for Luciferase-based Assay Positives. [Related pubchem assays: 620, 618, 411 ]
HT-1080 = experiment: HT1080 cell viability loss – fluorescence readout (AID 620); type: functional, cell-based; conditions: Homo sapiens
[11] = reduction of Shn3 3'UTR-driven luciferase in osteoblasts – cell-based, Clone20 osteoblasts, firefly luciferase, cherry-picked, dose response (AID 624132); type: functional;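 note: firefly luciferase luminescence from reporter carrying the Shn3 3'UTR in osteoblasts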
[12] = loss of viability in HepG2 cells – cell-based, CellTiter-Glo, cherry-picked, cytotoxicity control for Shn3 inhibitor project, dose response (AID 624134); type: functional
[13] = non-specific 3'UTR reporter inhibition in Clone20-Shn3RL – cell-based, Renilla luciferase, cherry-picked, counter-screen for Shn3 inhibitor project, dose response (AID 624133); type: functional
Caspase-6 = biological target: T2, Caspase-6 (Homo sapiens, UniProt P55212); experiment: inhibition of CASP6 peptide cleavage – biochemical, VEID-R110 fluorescence, cherry-pick, dose response (AID 720632)
T2 sequence (P55212 whole entry): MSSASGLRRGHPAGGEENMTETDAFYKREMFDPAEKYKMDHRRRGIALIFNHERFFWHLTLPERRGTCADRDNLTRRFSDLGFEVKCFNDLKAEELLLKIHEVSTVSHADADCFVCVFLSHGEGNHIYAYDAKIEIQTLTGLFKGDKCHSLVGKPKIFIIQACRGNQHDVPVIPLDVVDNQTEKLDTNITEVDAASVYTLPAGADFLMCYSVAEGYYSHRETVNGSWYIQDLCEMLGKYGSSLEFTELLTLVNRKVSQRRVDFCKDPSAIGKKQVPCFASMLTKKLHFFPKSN

Compound: O=C(Nc1ncc(Br)s1)C(Cc1ccccc1)n1cccc1 (stereo unspecified)
EC50 [1]: 11.9 µM (active)
EC50 [2]: 13.2 µM (active)
EC50 [3]: 1.33 µM (active)

IC50 [4]: 24.7 µM (not active)
Compound: COc1ccc(CC(=O)Nc2nc3ccccc3s2)cc1S(=O)(=O)N1CCOCC1

AC50 [5]: 24.2 µM (active)
Compound: COc1ccc(CC(=O)NC(C)c2nnc(SCCOc3ccc(OC)cc3)n2C)cc1 (stereo unspecified)

IC50 [4]: 32.2 µM (not active)
Compound: CC(=O)Nc1ccc(S(=O)(=O)N2CCC(n3cnc4cc(F)ccc43)CC2)cc1

Compound: COc1cccc(-c2nn(C)c3sc(C(=O)N4CCN(c5ccccn5)CC4)cc23)c1
EC50 [1]: 15.2 µM (active)
EC50 [2]: 14 µM (active)

IC50 (Estrogen receptor beta): > 50 µM (not active)
Compound: O=C(Nc1cnc2ccccn2c1=O)c1ccc(F)cc1

IC50 (Estrogen receptor beta): > 50 µM (not active)
Compound: COc1ccc(Cn2c(C)c(C)c(C#N)c2NC(=O)Nc2cccc(C)c2)cc1

EC50 [6]: 1.54 µM (active)
Compound: Cc1csc(SCC(=O)Nc2ccc(Cl)cn2)n1

EC50 [7]: > 79.4 µM (not active)
EC50 [8]: > 79.4 µM (not active)
EC50 [9]: > 79.4 µM (not active)
Compound: C=CCn1c(=O)c2ccccc2n2c(SCC(=O)c3ccccc3)nnc12

Compound: Cc1ccc(-c2nc3cc(N)ccc3o2)c(C)c1
EC50 [10]: 1.95 µM (active)
EC50 (HT-1080): > 50 µM (not active)

Compound: Cc1cc(C(=O)NNS(=O)(=O)c2cc(C(=O)O)ccc2Cl)c(C)n1-c1ccccc1
AC50 [11]: 25.7 µM (active)
AC50 [12]: > 70 µM (inactive)
AC50 [13]: 16.9 µM (active)
AC50 (Caspase-6): 23.2 µM (active)

IC50 [4]: 7.87 µM (active)
Compound: COc1cc(C(=O)NCc2cn3ccccc3n2)cc(OC)c1OC
